{
  "source": "patent US12576069B2",
  "about": "“Compositions and methods for treating slow-flow vascular malformations” (YALE UNIVERSITY, priority 2019, dated 2026)",
  "key": {"[1]": {"conditions": "cited from earlier work"}, "[2]": {"tested_on": "congenital vascular malformations", "conditions": "conventional treatment of vascular malformations; at times lethal; cited from earlier work"}, "[3]": {"tested_on": "complicated vascular malformations", "conditions": "cited from earlier work"}, "[4]": {"conditions": "oral rapamycin, toxicities attributable to rapamycin"}},
  "note": "Where two headings read alike, the source gives them in different places.",
  "data": [
    {"smiles": "CO[C@H]1C[C@@H]2CC[C@@H](C)[C@@](O)(O2)C(=O)C(=O)N2CCCC[C@H]2C(=O)O[C@H]([C@H](C)C[C@@H]2CC[C@@H](OC(=O)C(C)(CO)CO)[C@H](OC)C2)CC(=O)[C@H](C)/C=C(\\C)[C@@H](O)[C@@H](OC)C(=O)[C@H](C)C[C@H](C)/C=C/C=C/C=C/1C", "note": "[Temsirolimus]", "values": [
      {"measurement": "pain relief at follow-up", "setting": "venous malformation; Example 1, post-operative day two, 14, and 90", "value": "excellent pain relief"},
      {"measurement": "venous flow in the malformation, color flow Doppler", "setting": "venous malformation; Example 2, left nasal venous malformation, FIGS. 5A-5B", "value": "diminished venous flow"},
      {"measurement": "pain relief at follow-up", "setting": "venous malformation; Example 2, post-operative day 14 and day ~90", "value": "partial pain relief"},
      {"measurement": "fevers or infection at follow-up", "setting": "venous malformation; human, in vivo", "value": "no evidence of fevers or infection"},
      {"measurement": "fevers, infection at follow-up", "setting": "venous malformation; human, in vivo", "value": "no evidence of fevers, infection"},
      {"measurement": "normal arterial flow adjacent to the malformation, spectral waveform analysis", "setting": "venous malformation; human, in vivo", "value": "preservation of intervening normal arterial network of the face"},
      {"measurement": "perioperative complications", "setting": "venous malformation; human, in vivo", "value": "no perioperative complications"},
      {"measurement": "post-operative labs", "setting": "venous malformation; human, in vivo", "value": "within expected, normal limits"},
      {"measurement": "peak concentration Cmax, temsirolimus compared with sirolimus", "setting": "[1]; IV infusion, theoretical comparison of equal units", "value": "almost similar"}
    ]},
    {"smiles": "CCO", "note": "[absolute ethanol, ethanol]", "values": [
      {"measurement": "side effect profile", "setting": "[2]", "value": "up to 50%"}
    ]},
    {"smiles": "CO[C@H]1C[C@@H]2CC[C@@H](C)[C@@](O)(O2)C(=O)C(=O)N2CCCC[C@H]2C(=O)O[C@H]([C@H](C)C[C@@H]2CC[C@@H](O)[C@H](OC)C2)CC(=O)[C@H](C)/C=C(\\C)[C@@H](O)[C@@H](OC)C(=O)[C@H](C)C[C@H](C)/C=C/C=C/C=C/1C", "note": "[rapamycin]", "values": [
      {"measurement": "patients taken off of the study due to persistent adverse effects", "setting": "[3]; oral rapamycin, phase II trial enrolling 61 patients", "value": "Two"},
      {"measurement": "Grade 3 and higher blood/bone marrow toxicity, share of patients", "setting": "[3]; [4]", "value": 27, "unit": "%"},
      {"measurement": "Grade 3 and higher gastrointestinal toxicity, share of patients", "setting": "[3]; [4]", "value": 3, "unit": "%"},
      {"measurement": "Grade 3 and higher metabolic/laboratory toxicity, share of patients", "setting": "[3]; [4]", "value": 3, "unit": "%"},
      {"measurement": "other commonly reported negative side effects", "setting": "[3]; systemic rapamycin", "value": "stomatitis, headache, infections, myelodepression, acne, and hyperlipidemia"},
      {"measurement": "sirolimus AUC relative to temsirolimus AUC", "setting": "[1]; single 25 mg intravenous dose of temsirolimus, patients with cancer", "value": 2.7, "unit": "fold"}
    ]}
  ]
}
